From publication PMC5589751, “Synthesis, high-throughput screening and pharmacological characterization of β–lactam derivatives as TRPM8 antagonists” (Scientific Reports, 2017)

Tests used:
TRPM8 = target: T1, TRPM8 (Rattus norvegicus, UniProt Q8R455); assay: Ca2+ microfluorography (Fluo-4 NW), menthol-induced Ca2+ signal in HEK-CR1-TRPM8 cells; assay type: cell-based; conditions: for % Block TRPM8 50 µM: 50 µM compound; for % Block TRPM8 50 µM / IC50: agonist 100 µM menthol, HEK-CR1-TRPM8 cells
T1 construct: expressed in transfected cells
Protocol: (§1) All compounds were tested at two different concentrations (50 and 5 µM) on TRPM8 and TRPV1 channels stably expressed in HEK and SH-SY5Y cell lines, respectively. The agonist induced intracellular Ca^2+ signals were measured using a fluorescent Ca^2+ indicator, in the absence and in the presence of test compounds. […] The obtained results were compared to those of 68 (AMTB, TRPM8 antagonist) and ruthenium red (TRPV1 antagonist). The IC50 values for the assay on TRPM8 were also calculated.
(§2) For fluorescence assays, cells expressing TRP channels (SH-SY5Y-TRPV1 and HEKCR1-TRPM8) were seeded in 96-well plates (Corning Incorporated, Corning, NY) at a cell density of 40,000 cells 2 days before treatment. The day of treatment the medium was replaced with 100 µL of the dye loading solution Fluo-4 NW supplemented with probenecid 2.5 mM. Then the compounds dissolved in DMSO were added at the desired concentrations and the plate(s) were incubated at 37 °C in a humidified atmosphere of 5% CO2 for 60 minutes.
(§3) The fluorescence was measured using instrument settings appropriate for excitation at 485 nm and emission at 535 nm (POLARstar Omega BMG LABtech). […] The corresponding antagonist
(§4) (10 µM Ruthenium Red forTRPV1 and 10 µM 68 for TRPM8) was added for the blockade. The changes in fluorescence intensity were recorded during 15 cycles more. […] The blocking percentage was calculated as follow (Eq. 1):1 %TRPBlockedResponse=(1−Fo−Fi/FCo−FCi)∗100 where Fo is the fluorescence after the addition of menthol in the presence of the compound, Fi is the fluorescence before the addition of menthol in the presence of the compound, FCo is the fluorescence after the addition of menthol in the absence of the compound, FCi is the fluorescence before the addition of menthol in the absence of the compound. To guarantee that our results were useful we only used assays with a Z-factor higher than 0.5.
(§5) The statistical Z-factor to determine the quality of the HTS experiment as was calculated using the equation 2:2 Z‐factor=1−3∗(SDmax+SDmin)/Meanmax−Meanmin where: Meanmax is the mean of the maximum fluorescence in the presence of agonist, SDmax is the standard deviation of the maximum fluorescence in the presence of agonists, Meanmin is the mean of the maximum fluorescence in the presence of agonist and antagonist and SDmin is the standard deviation of the maximum fluorescence in the presence of agonist and antagonist.

TRPV1 = TRPV1 (Rattus norvegicus, UniProt O35433); assay: Ca2+ microfluorography (Fluo-4 NW), capsaicin-induced Ca2+ signal in SH-SY5Y-TRPV1 cells; assay type: cell-based; conditions: 50 µM compound; agonist 10 µM capsaicin; SH-SY5Y-TRPV1 cells
Protocol: as §1, §2, §3, §4, §5

Kinetic solubility = assay type: physicochemical
HEK-CR1 cells = assay: MTT-based assay of cytotoxicity; assay type: cell-based; conditions: 24 hours incubation; three concentrations
Protocol: Figure 2S. Effect of derivative 41 and 45 on MTT-based assay of cytotoxicity in HEK-CR1 cells.
A) Cell survival after 24 hours incubation at three concentrations of derivative 41 or B) derivative 45.
Each value is expressed as mean ± SEM. n ≥ 4, ANOVA with Bonferroni post hoc test (*** p < 0.001).
Cell viability assay (MTT)
Cell viability was assessed by the detection of mitochondrial activity in living cells using a modified colorimetric analysis of Blue Tetrazolium Bromide Thiazolyl (MTT). Briefly, HEK293 cells (2 × 10^4 cells/well) were subcultured in 96-well plates, grown until 80–90% confluence, and incubated with increasing concentrations of testing compounds for 24 h. Following treatment, 10 μL of MTT solution (5 mg/mL in phosphate buffered saline) was added to each well and further incubated for 4 h at 37 °C. Subsequently, 100 μL of DMSO was added to each well to dissolve any deposited formazan resulting from cleavage and reduction of MTT by active mitochondrial dehydrogenases. The optical density of each well was measured at 540 nm with a microplate reader (Polastar BMG LABTECH, […]
(1 picture or pasted object on this page, not shown here)

T1 sequence (Q8R455 whole entry): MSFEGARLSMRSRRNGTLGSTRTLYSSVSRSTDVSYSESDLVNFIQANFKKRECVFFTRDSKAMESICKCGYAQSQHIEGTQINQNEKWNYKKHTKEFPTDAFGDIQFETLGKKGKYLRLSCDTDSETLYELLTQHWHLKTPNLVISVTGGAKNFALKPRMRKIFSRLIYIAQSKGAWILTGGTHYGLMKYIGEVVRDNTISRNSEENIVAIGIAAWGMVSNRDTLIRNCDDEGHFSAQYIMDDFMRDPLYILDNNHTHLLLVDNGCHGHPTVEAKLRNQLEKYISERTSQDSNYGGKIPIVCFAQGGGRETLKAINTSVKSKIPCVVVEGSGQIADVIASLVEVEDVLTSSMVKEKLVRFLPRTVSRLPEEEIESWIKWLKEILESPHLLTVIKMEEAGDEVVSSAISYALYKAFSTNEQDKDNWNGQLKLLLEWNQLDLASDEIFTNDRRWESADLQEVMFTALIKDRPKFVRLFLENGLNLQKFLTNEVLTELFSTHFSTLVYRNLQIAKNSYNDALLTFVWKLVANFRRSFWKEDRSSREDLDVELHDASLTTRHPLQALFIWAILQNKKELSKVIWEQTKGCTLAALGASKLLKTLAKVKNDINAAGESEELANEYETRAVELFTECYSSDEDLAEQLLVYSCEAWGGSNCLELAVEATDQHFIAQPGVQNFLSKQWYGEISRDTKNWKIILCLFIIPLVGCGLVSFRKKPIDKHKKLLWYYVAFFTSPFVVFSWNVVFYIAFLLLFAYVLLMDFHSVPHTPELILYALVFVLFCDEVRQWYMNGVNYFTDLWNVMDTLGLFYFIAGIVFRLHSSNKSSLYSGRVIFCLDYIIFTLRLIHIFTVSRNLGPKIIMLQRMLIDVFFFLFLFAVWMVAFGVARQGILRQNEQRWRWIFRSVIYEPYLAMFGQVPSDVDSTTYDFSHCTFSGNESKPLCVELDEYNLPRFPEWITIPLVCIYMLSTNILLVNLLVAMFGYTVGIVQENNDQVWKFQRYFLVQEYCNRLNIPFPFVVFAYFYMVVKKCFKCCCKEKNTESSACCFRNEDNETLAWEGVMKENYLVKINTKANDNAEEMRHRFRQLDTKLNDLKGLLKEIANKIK
TRPV1, sequence (O35433 whole entry): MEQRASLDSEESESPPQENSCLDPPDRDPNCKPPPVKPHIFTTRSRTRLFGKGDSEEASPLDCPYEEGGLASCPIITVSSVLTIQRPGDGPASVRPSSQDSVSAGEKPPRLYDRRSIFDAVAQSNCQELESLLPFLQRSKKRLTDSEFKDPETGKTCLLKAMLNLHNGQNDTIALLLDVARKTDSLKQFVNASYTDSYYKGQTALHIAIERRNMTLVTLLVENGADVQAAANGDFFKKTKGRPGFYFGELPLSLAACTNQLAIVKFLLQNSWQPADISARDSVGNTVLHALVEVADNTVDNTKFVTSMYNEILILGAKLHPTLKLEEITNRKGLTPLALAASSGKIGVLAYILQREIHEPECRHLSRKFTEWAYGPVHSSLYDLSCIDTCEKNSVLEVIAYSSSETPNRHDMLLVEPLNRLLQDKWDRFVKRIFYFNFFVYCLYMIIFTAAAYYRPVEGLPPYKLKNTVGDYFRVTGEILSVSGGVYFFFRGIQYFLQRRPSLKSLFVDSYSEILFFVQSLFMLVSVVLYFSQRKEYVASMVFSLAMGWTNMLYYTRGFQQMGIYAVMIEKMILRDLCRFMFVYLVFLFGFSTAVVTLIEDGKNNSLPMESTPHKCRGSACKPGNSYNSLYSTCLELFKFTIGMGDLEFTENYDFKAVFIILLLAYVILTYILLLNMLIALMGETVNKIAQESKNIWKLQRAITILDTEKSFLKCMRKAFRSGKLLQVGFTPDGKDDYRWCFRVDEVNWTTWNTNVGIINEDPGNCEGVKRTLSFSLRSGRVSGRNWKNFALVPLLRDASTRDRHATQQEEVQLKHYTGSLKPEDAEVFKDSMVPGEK

Compound	blocking effect against TRPM8 at 5 µM (TRPM8; 5 µM compound)	% Block TRPM8 50 µM (TRPM8)	IC50 (TRPM8)	% Block TRPV1 50 µM (TRPV1)	Kinetic solubility (Kinetic solubility; 1% DMSO)	Kinetic solubility (Kinetic solubility; 5% DMSO)	cytotoxicity in the MTT assay (HEK-CR1 cells)
CC(C)(C)OC(=O)N[C@@H](CCN1C(=O)CC1(Cc1ccccc1)C(=O)OCc1ccccc1)C(=O)OCc1ccccc1 (some centres unmarked) [Compound 41, 4R,S-Benzyl-4-benzyloxycarbonyl-1-[(3′S-benzyloxycarbonyl-3-tert-butoxycarbonylamino-3′-benzyloxycarbonyl)prop-1′-yl]-2-oxoazetidine]	95%	96.3 ± 1.6%	420 nM	38.3 ± 17.9%	< 10 µM	< 10 µM	did not display apparent cytotoxicity
CC1C(=O)N(CC[C@H](NC(=O)OC(C)(C)C)C(=O)OCc2ccccc2)C1(Cc1ccccc1)C(=O)OCc1ccccc1 (stereo partly drawn) [Compound 45, 4R,S-Benzyl-4-benzyloxycarbonyl-1-[(3′S-benzyloxycarbonyl-3′-tert-butoxycarbonylamino)prop-1′-yl]-(3R,S)-methyl-2-oxoazetidine]	–	100%	800 ± 1170 nM	31.8 ± 6.5%	–	–	did not display apparent cytotoxicity
